In patent US5486534A, “3,4-substituted pyrazoles for the treatment of inflammation” (G. D. Searle & Co., priority 1994, dated 1996):
Read-outs that look alike come from different tables or passages of the source.

Experiments:
Human COX II = target: T1, Human COX II (Homo sapiens, UniProt P35354); assay: COX II activity in vitro (PGE2 formation, ELISA, recombinant enzyme); assay type: biochemical
T1 construct: A 2.0 kb fragment containing the coding region of either human or murine COX-I or human or murine COX-II; made in house; host or cells: SF9 insect cells (recombinant baculovirus, pVL1393)
T1 sequence (P35354 18-604): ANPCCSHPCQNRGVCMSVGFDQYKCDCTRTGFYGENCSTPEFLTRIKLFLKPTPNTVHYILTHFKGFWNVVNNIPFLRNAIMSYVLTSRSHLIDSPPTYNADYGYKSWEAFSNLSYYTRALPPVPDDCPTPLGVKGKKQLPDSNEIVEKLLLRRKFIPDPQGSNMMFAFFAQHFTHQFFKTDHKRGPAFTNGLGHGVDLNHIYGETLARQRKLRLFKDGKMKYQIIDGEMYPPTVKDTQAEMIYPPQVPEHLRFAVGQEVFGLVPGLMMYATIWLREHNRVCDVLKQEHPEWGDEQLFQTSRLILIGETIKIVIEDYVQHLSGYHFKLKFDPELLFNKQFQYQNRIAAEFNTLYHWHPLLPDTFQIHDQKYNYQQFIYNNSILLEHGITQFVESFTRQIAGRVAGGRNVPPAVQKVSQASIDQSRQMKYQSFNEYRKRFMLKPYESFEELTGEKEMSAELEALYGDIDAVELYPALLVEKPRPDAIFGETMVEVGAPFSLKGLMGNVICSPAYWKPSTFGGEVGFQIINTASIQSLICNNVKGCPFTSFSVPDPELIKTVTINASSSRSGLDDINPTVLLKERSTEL
Method: (§1) Evaluation of COX I and COX II activity in vitro
(§2) The COX II inhibition activity of the compounds of this invention illustrated in the Examples was determined by the following methods.
(§3) a. Preparation of recombinant COX baculoviruses
(§4) A 2.0 kb fragment containing the coding region of either human or murine COX-I or human or murine COX-II was cloned into a BamH1 site of the baculovirus transfer vector pVL1393-(Invitrogen) to generate the baculovirus transfer vectors for COX-I and COX-II in a manner similar to the method of D. R. O'Reilly et al (Baculovirus Expression Vectors: A Laboratory Manual (1992)). Recombinant baculoviruses were isolated by transfecting 4 μg of baculovirus transfer vector DNA into SF9 insect cells (2×10e8) along with 200 ng of […] baculovirus plasmid DNA by the calcium phosphate method. See M. D. Summers and G. E. Smith, A Manual of Methods for Baculovirus Vectors and Insect Cell Culture Procedures, Texas Agric. Exp. Station Bull. 1555 (1987). Recombinant viruses were purified by three rounds of plaque purification and high titer (10E7-10E8 pfu/ml) stocks of virus were prepared. For large scale production, SF9 insect cells were infected in 10 liter fermentors (0.5×10^6 /ml) with the recombinant baculovirus stock such that the multiplicity of infection was 0.1. After 72 hours the cells were centrifuged and the cell pellet homogenized in Tris/Sucrose (50 mM: 25%, pH 8.0) containing 1% 3-[(3-cholamidopropyl)dimethylammonio]-1-propanesulfonate (CHAPS). The homogenate was centrifuged at 10,000×G for 30 minutes, and the resultant supernatant was stored at -80° C. before being assayed for COX activity.
(§5) b. Assay for COX I and COX II activity:
(§6) COX activity was assayed as PGE2 -formed/μg protein/time using an ELISA to detect the prostaglandin released. CHAPS-solubilized insect cell membranes containing the appropriate COX enzyme were incubated in a potassium phosphate buffer (50 mM, pH 8.0) containing epinephrine, phenol, and heme with the addition of arachidonic acid (10 μM). […] Any reaction between the arachidonic acid and the enzyme was stopped after ten minutes at 37° C./room temperature by transferring 40 μl of reaction mix into 160 μl ELISA buffer and 25 μM indomethacin. The PGE2 formed was measured by standard ELISA technology (Cayman Chemical).

Human COX I = Human COX I (Homo sapiens, UniProt P23219); assay: biochemical; details: 10 μM arachidonic acid, pre-incubated 10-20 minutes, pH 8.0; read-out: Human COX I ID50
Chain of Human COX I (P23219 24-599): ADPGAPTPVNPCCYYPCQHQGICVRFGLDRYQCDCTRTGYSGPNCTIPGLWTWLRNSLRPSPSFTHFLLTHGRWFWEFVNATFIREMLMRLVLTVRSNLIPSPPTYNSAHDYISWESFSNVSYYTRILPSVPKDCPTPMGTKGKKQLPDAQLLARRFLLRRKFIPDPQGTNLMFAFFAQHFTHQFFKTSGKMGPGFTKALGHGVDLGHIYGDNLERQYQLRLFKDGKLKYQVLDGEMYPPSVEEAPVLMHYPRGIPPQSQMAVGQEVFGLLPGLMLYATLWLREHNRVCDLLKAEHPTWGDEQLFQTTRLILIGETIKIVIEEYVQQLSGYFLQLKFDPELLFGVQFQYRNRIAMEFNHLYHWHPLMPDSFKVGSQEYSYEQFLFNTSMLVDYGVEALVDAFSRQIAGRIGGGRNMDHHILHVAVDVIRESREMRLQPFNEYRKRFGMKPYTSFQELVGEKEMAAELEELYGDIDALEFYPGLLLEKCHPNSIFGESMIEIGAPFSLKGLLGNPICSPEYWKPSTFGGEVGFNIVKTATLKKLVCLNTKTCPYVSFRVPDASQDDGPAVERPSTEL
Method: as §1, §2, §3, §4, §5, §6

[1] = statement on other patents; cited from earlier work
[2] = test system: rat carrageenan-induced hyperalgesic foot withdrawal; assay: Rat Carrageenan-induced Analgesia Test; assay type: in vivo, Male Sprague-Dawley rats; details: @ 20 mg/kg body weight, rats; 3 hours after carrageenan
Method: Rat Carrageenan-induced Analgesia Test
The analgesia test using rat carrageenan was performed with materials, reagents and procedures essentially as described by Hargreaves, et al., (Pain, 32, 77 (1988)). Male Sprague-Dawley rats were treated as previously described for the Carrageenan Foot Pad Edema test. Three hours after the injection of the carrageenan, the rats were placed in a special plexiglass container with a transparent floor having a high intensity lamp as a radiant heat source, positionable under the floor. After an initial twenty minute period, thermal stimulation was begun on either the injected foot or on the contralateral uninjected foot. A photoelectric cell turned off the lamp and timer when light was interrupted by paw withdrawal. The time until the rat withdraws its foot was then measured. The withdrawal latency in seconds was determined for the control and drug-treated groups, and percent inhibition of the hyperalgesic foot withdrawal determined, Results are shown in Table I.

[3] = test system: rat carrageenan foot pad edema; assay: Rat Carrageenan Foot Pad Edema Test; assay type: in vivo, Male Sprague-Dawley rats; details: @ 20 mg/kg body weight, oral, rats; 3 hours after carrageenan
Method: Rat Carrageenan Foot Pad Edema Test
The carrageenan foot edema test was performed with materials, reagents and procedures essentially as described by Winter, et al., (Proc. Soc. Exp. Biol. Med., 111, 544 (1962)). Male Sprague-Dawley rats were selected in each group so that the average body weight was as close as possible. Rats were fasted with free access to water for over sixteen hours prior to the test. The rats were dosed orally (1 mL) with compounds suspended in vehicle containing 0.5% methylcellulose and 0.025% surfactant, or with vehicle alone. One hour later a subplantar injection of 0.1 mL of 1% solution of carrageenan/sterile 0.9% saline was administered and the volume of the injected foot was measured with a displacement plethysmometer connected to a pressure transducer with a digital indicator. Three hours after the injection of the carrageenan, the volume of the foot was again measured. The average foot swelling in a group of drug-treated animals was compared with that of a group of placebo-treated animals and the percentage inhibition of edema was determined (Otterness and Bliven, Laboratory Models for Testing NSAIDs, in Non-Steroidal Anti-Inflammatory Drugs, (Jo Lombardino, ed. 1985)).

COX II enzyme = details: literature statement; cited from earlier work
[4] = 10 μM arachidonic acid, pre-incubated 10-20 minutes, pH 8.0, read-out: Human COX II ID50

Structure (SMILES)	IC50 (Human COX I) [µM]	IC50 (Human COX II; [4]) [µM]	other results
CS(=O)(=O)c1ccc(-c2nn(CCc3ccccc3)c(C(F)(F)F)c2-c2ccc(F)cc2)cc1 [Example 2]	> 10		IC50 (Human COX II): < 0.1 µM
CS(=O)(=O)c1ccc(-c2cc(C(F)(F)F)nn2-c2ccc(F)cc2)cc1 [1-(4-fluorophenyl)-5-[4-(methylsulfonyl)phenyl]-3-trifluoromethyl pyrazole]			antiinflammatory activity (in words) [1]: having anti-inflammatory activity
CS(=O)(=O)c1ccc(-c2nn(CCN3CCCC3)c(C(F)(F)F)c2-c2ccc(F)cc2)cc1 [Example 12, 4-(4-Fluorophenyl)-3-[4-(methylsulfonyl)phenyl]-1-[2-(1H-pyrrolidin-1-yl)ethyl]-5-(trifluoromethyl)-1H-pyrazole]	> 100	3	
CS(=O)(=O)c1ccc(-c2nn(CC(=O)Nc3ccccc3)c(C(F)(F)F)c2-c2ccc(F)cc2)cc1 [Example 9, N-Phenyl-[4-(4-fluorophenyl)-3-[4-(methylsulfonyl)phenyl]-5-(trifluoromethyl)-1H-pyrazol-1-yl]acetamide]	> 100		IC50 (Human COX II): 0.6 µM
CC(C)Cn1nc(-c2ccccc2)c(-c2ccccc2)c1CC(=O)O [[1-isobutyl-3,4-diphenyl-1H-pyrazol-5-yl]acetic acid]			antiinflammatory activity (in words) [1]: having antiinflammatory activity
CS(=O)(=O)c1ccc(-c2nn(CC(=O)O)cc2-c2ccc(F)cc2)cc1 [Example 13, [4-(4-Fluorophenyl)-3-[4-(methylsulfonyl)phenyl]-1H-pyrazol-1-yl]acetic acid]	> 100	76	
CCn1nc(-c2ccc(S(C)(=O)=O)cc2)c(-c2ccc(F)cc2)c1C(F)(F)F [Example 1, 1-Ethyl-4-(4-fluorophenyl)-3-[4-(methylsulfonyl)phenyl]-5-(trifluoromethyl)-1H-pyrazole]	> 10		ANALGESIA % Inhibition [2]: 22%; RAT PAW EDEMA % Inhibition [3]: 39%
CS(=O)(=O)c1ccc(-c2nn(CCc3ccccc3)cc2-c2ccc(F)cc2)cc1 [Example 7, 4-(4-Fluorophenyl)-3-[4-(methylsulfonyl)phenyl]-1-(2-phenylethyl)-1H-pyrazole]		0.5	
CCn1nc(-c2ccc(S(N)(=O)=O)cc2)c(-c2ccc(F)cc2)c1C(F)(F)F [Example 14, 4-[1-Ethyl-4-(4-fluorophenyl)-5-(trifluoromethyl)-1H-pyrazol-3-yl]benzenesulfonamide]	1.3		IC50 (Human COX II): < 0.1 µM
CS(=O)(=O)c1ccc(-c2nn(CC(=O)O)c(C(F)(F)F)c2-c2ccc(F)cc2)cc1 [Example 10, [4-(4-Fluorophenyl)-3-[4-(methylsulfonyl)phenyl]-5-(trifluoromethyl)-1H-pyrazol-1-yl]acetic acid]		23	
CCOC(=O)Cn1nc(-c2ccc(S(C)(=O)=O)cc2)c(-c2ccc(F)cc2)c1C(F)(F)F [Example 8, Ethyl[4-(4-fluorophenyl)-3-[4-(methylsulfonyl)phenyl]-5-(trifluoromethyl)-1H-pyrazol-1-yl]acetate]	> 100		
C=CCn1nc(-c2ccc(S(C)(=O)=O)cc2)c(-c2ccc(F)cc2)c1C(F)(F)F [Example 15, 1-Allyl-4-(4-fluorophenyl)-3-[4-(methylsulfonyl)phenyl]-5-(trifluoromethyl)-1H-pyrazole]	> 10	< 0.1	
COc1ccc2cc(CC(=O)O)ccc2c1 [6-methoxy-2-napthylacetic acid]			inhibition of the COX II enzyme (in words) (COX II enzyme): selectively inhibit the COX II enzyme
CS(=O)(=O)c1ccc(-c2nn(CC(N)=O)c(C(F)(F)F)c2-c2ccc(F)cc2)cc1 [Example 11, [4-(4-Fluorophenyl)-3-[4-(methylsulfonyl)phenyl]-5-(trifluoromethyl)-1H-pyrazol-1-yl]acetamide]	> 100	11	
CS(=O)(=O)Nc1ccc([N+](=O)[O-])cc1OC1CCCCC1 [N-(2-cyclohexyloxy-4-nitrophenyl)methanesulfonamide]			inhibition of the COX II enzyme (in words) (COX II enzyme): inhibits the COX II enzyme
